The source of these data is patent US9334263B2, “Compositions useful for treating disorders related to kit” (BLUEPRINT MEDICINES CORPORATION, priority 2013, dated 2016).

One test concerns the target T1, wild type Kit (Homo sapiens, UniProt P10721).
T1 construct: purchased Carna Bioscience 08-156
The test can be described thus: Kit wild type assay at Km (Caliper electrophoretic mobility shift). The settings on record: 400 uM ATP, 25 C, 90 minutes; read-out: WT KIT. It is filed as biochemical. The procedure:
In order to assess the activity of chemical compounds against the relevant kinase of interest, the Caliper LifeSciences electrophoretic mobility shift technology platform is used. Fluorescently labeled substrate peptide is incubated in the presence of kinase and ATP so that a […] proportion of the peptide is phosphorylated. At the end of the reaction, the mix of phosphorylated (product) and non-phosphorylated (substrate) peptides are passed through the microfluidic system of the Caliper EZ Reader 2, under an applied potential difference. The presence of the phosphate group on the product peptide provides a difference in mass and charge between those of the substrate peptide, resulting in a separation of the substrate and product pools in the sample. As the pools pass a LEDS within the instrument, these pools are detected and resolved as separate peaks. The ratio between these peaks therefore reflects the activity of the chemical matter at that concentration in that well, under those conditions.
The reaction was stopped by the addition of 70 ul of Stop buffer (100 mM HEPES pH 7.5, 0.015% Brij 35, 35 mM EDTA and 0.2% of Coating Reagent 3 (Caliper Lifesciences)). The plate was then read on a Caliper EZReader 2 (protocol settings: −1.9 psi, upstream voltage −700, downstream voltage −3000, post sample sip 35 s).

The target in the next test is T2, D816V Kit (Homo sapiens, UniProt P10721, D816V).
T2 construct: purchased Carna Bioscience 08-156
The test is described as follows: Kit D816V assay at Km (Caliper electrophoretic mobility shift). It is filed as biochemical. The settings on record: 15 uM ATP, 25 C, 90 minutes. In a few lines:
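Read-out is the ratio of phosphorylated to unphosphorylated fluorescent peptide, resolved by mobility shift on a Caliper EZ Reader 2.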

Test [1] has as its target T3, Kit D816V (HMC1.2 cells, Kit V560G and D816V) (Homo sapiens, UniProt P10721, D816V/V560G).
T3 construct: endogenous in cells; host or cells: HMC1.2 cells
The test can be described thus: HMC1.2 autophosphorylation assay (AlphaLISA, phospho-Y719 c-Kit). It counts as cell-based. Particulars: Kit autophosphorylation at tyrosine 719, 90 minutes, read-out: Cellular Activity. The gist of the method:
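AlphaScreen signal comes from lysed HMC1.2 cells incubated with phospho-Y719 and total c-Kit antibodies (15 nM final), acceptor beads and then streptavidin donor beads, 2 h each at room temperature. Beforehand, cells deprived of serum overnight received compound for 90 min as a 10-point series, 25 uM–95.4 pM, 0.25% DMSO.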

SMILES strings stand for the structures.

T1 sequence (P10721 26-976): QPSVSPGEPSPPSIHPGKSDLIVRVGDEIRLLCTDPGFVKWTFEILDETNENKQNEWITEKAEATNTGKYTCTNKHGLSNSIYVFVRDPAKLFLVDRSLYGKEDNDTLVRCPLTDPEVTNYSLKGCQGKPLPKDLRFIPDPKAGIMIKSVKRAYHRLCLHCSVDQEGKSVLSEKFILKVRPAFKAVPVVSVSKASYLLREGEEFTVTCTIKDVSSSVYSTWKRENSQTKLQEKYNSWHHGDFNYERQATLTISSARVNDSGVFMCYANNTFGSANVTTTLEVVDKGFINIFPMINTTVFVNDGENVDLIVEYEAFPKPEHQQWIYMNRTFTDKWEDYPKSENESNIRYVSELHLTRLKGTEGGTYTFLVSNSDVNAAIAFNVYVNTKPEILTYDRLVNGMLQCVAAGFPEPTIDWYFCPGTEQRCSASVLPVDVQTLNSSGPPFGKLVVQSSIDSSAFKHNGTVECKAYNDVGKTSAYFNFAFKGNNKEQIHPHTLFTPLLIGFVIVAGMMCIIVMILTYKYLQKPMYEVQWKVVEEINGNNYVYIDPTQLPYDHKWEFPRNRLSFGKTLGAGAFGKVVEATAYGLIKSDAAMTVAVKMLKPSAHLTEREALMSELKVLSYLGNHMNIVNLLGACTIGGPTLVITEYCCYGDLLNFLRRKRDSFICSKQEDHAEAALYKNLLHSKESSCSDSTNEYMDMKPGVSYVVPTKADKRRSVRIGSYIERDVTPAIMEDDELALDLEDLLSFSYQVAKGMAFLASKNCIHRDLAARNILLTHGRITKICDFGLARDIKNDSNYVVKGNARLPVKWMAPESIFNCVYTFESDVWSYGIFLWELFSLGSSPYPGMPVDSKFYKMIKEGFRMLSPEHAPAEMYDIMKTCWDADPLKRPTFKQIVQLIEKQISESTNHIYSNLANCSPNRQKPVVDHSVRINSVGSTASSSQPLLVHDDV
T3 sequence (P10721 26-976 V560G/D816V): as the sequence (P10721 26-976) above, with V535G, D791V counted along it
T2 sequence (P10721 26-976 D816V): as the sequence (P10721 26-976) above, with D791V counted along it

`c1ccc(Cc2cnc(N3CCN(c4ncnc(Nc5cc[nH]n5)n4)CC3)nc2)cc1` [Compound 5]: the IC50 on wild type Kit fell in the range of 100 to 1000 nM; at D816V Kit, 1.01 to 10 nM; in test [1], 1000 to 10000 nM.

Regarding `c1ccc(Cc2cnc(N3CCN(c4ncnc(Nc5ccccc5)n4)CC3)nc2)cc1` [Compound 7], the IC50 at wild type Kit fell in the range of 11 to 100 nM; at D816V Kit, 1.01 to 10 nM; in test [1] it was 1000 to 10000 nM.

Regarding `Nc1cncc(Nc2ncnc(N3CCN(c4ncc(Cc5ccccc5)cn4)CC3)n2)c1` [Compound 13], the values for the IC50 (on wild type Kit; at D816V Kit; in test [1]) were under 10 nM, under 1 nM and 10 to 100 nM, respectively.

Turning to `NCc1cccc(Nc2ncnc(N3CCN(c4ncc(Cc5ccccc5)cn4)CC3)n2)c1` [Compound 14], the IC50 is 11 to 100 nM on wild type Kit, under 1 nM on D816V Kit and 100 to 1000 nM in test [1].

As to `OCc1ccc(Nc2ncnc(N3CCN(c4ncc(Cc5ccccc5)cn4)CC3)n2)cc1` [Compound 16], the IC50 is 11 to 100 nM on wild type Kit, under 1 nM at D816V Kit and 100 to 1000 nM in test [1].

For `CC(=O)c1cccc(Nc2ncnc(N3CCN(c4ncc(Cc5ccccc5)cn4)CC3)n2)c1` [Compound 22], the IC50 at wild type Kit was 100 to 1000 nM; on D816V Kit, 1.01 to 10 nM; in test [1], 100 to 1000 nM.

Turning to `NC(=O)c1cccc(Nc2ncnc(N3CCN(c4ncc(Cc5ccccc5)cn4)CC3)n2)c1` [Compound 23], the results for the IC50 (on wild type Kit; at D816V Kit; in test [1]) were 11 to 100 nM, 1.01 to 10 nM and 100 to 1000 nM, respectively.

On to `NC(=O)c1ccc(Nc2ncnc(N3CCN(c4ncc(Cc5ccccc5)cn4)CC3)n2)cc1` [Compound 24], for which the IC50 on wild type Kit lay within 11 to 100 nM; on D816V Kit, 1.01 to 10 nM; in test [1], 100 to 1000 nM.

`CC(O)c1cccc(Nc2ncnc(N3CCN(c4ncc(Cc5ccccc5)cn4)CC3)n2)c1` (stereo not shown) [Compound 26]: the IC50 on wild type Kit lay within 11 to 100 nM; at D816V Kit it was 1.01 to 10 nM; in test [1] it was 100 to 1000 nM.

With `COCCn1cc(Nc2ncnc(N3CCN(c4ncc(Cc5ccccc5)cn4)CC3)n2)cn1` [Compound 31], the IC50 on wild type Kit was under 10 nM; at D816V Kit, under 1 nM; in test [1], 10 to 100 nM.

For `c1ccc(Cc2cnc(N3CCN(c4ncnc(Nc5ccc6c(c5)CNCC6)n4)CC3)nc2)cc1` [Compound 41], the values for the IC50 (on wild type Kit; at D816V Kit; in test [1]) were under 10 nM, under 1 nM and 10 to 100 nM, respectively.

As for `c1ccc(Cc2cnc(N3CCN(c4ncnc(Nc5ccc6c(c5)NCCC6)n4)CC3)nc2)cc1` [Compound 42], the IC50 was in the range of 11 to 100 nM at wild type Kit, 1.01 to 10 nM on D816V Kit and 10 to 100 nM in test [1].

On to `CN(C)Cc1cccc(Nc2ncnc(N3CCN(c4ncc(Cc5ccccc5)cn4)CC3)n2)c1` [Compound 49], for which the results for the IC50 (on wild type Kit; on D816V Kit; in test [1]) were 11 to 100 nM, under 1 nM and 10 to 100 nM, respectively.

Turning to `CC(C)(O)c1cccc(Nc2ncnc(N3CCN(c4ncc(Cc5ccccc5)cn4)CC3)n2)c1` [Compound 50], the IC50 on wild type Kit was in the range of 11 to 100 nM; on D816V Kit, 1.01 to 10 nM; in test [1], 1000 to 10000 nM.

On to `c1ccc(Cc2cnc(N3CCN(c4ncnc(Nc5cnn(CC6CNC6)c5)n4)CC3)nc2)cc1` [Compound 51], for which the IC50 on wild type Kit is 11 to 100 nM; on D816V Kit, under 1 nM; in test [1] it was 10 to 100 nM.

Regarding `N#Cc1ccc(NC(=O)N2CCN(c3ncnc(Nc4ccc(N5CCOCC5)cc4)n3)CC2)cc1` [Compound 59], the IC50 on wild type Kit was 100 to 1000 nM; at D816V Kit it was over 100 nM.

Take `CN(C)CCn1cc(Nc2ncnc(N3CCN(c4ncc(Cc5ccccc5)cn4)CC3)n2)cn1` [Compound 60]: the IC50 at wild type Kit is 11 to 100 nM; on D816V Kit it was under 1 nM; in test [1], 10 to 100 nM.

Regarding `OCC(O)Cn1cc(Nc2ncnc(N3CCN(c4ncc(Cc5ccccc5)cn4)CC3)n2)cn1` (stereo not shown) [Compound 64, 3-(4-(4-(4-(5-benzylpyrimidin-2-yl)piperazin-1-yl)-1,3,5-triazin-2-ylamino)-1H-pyrazol-1-yl)propane-1,2-diol], the figures for the IC50 (on wild type Kit; at D816V Kit; in test [1]) were 11 to 100 nM, under 1 nM and 10 to 100 nM, respectively.

Consider `CC(=O)NCc1cccc(Nc2ncnc(N3CCN(c4ncc(Cc5ccccc5)cn4)CC3)n2)c1` [Compound 74], for which the figures for the IC50 (at wild type Kit; at D816V Kit; in test [1]) were 11 to 100 nM, under 1 nM and 10 to 100 nM, respectively.

`c1ccc(Cc2cnc(N3CCN(c4ncnc(Nc5ccc6c(c5)CNCCO6)n4)CC3)nc2)cc1` [Compound 76]: the IC50 at wild type Kit was under 10 nM; on D816V Kit, under 1 nM; in test [1], 10 to 100 nM.

On to `c1ccc(Cc2cnc(N3CCN(c4ncnc(Nc5cnn(C[C@H]6CCCN6)c5)n4)CC3)nc2)cc1` [Compound 84], for which the values for the IC50 (on wild type Kit; at D816V Kit; in test [1]) were under 10 nM, under 1 nM and 10 to 100 nM, respectively.

`c1ccc(Cc2cnc(N3CCN(c4ncnc(Nc5cnn(C[C@@H]6CCCN6)c5)n4)CC3)nc2)cc1` [Compound 85]: the IC50 is 11 to 100 nM at wild type Kit, under 1 nM at D816V Kit and 10 to 100 nM in test [1].

With `c1ccc(Cc2cnc(N3CCN(c4ncnc(Nc5cnn(CC6CCOC6)c5)n4)CC3)nc2)cc1` (stereo not shown) [Compound 86], the IC50 at wild type Kit is 11 to 100 nM; on D816V Kit, under 1 nM; in test [1], 10 to 100 nM.

For the compound `CP(C)(=O)c1ccc(Nc2ncnc(N3CCN(c4ncc(Cc5ccccc5)cn4)CC3)n2)cc1` [Compound 89], the IC50 on wild type Kit is 11 to 100 nM; on D816V Kit, under 1 nM; in test [1] it was 100 to 1000 nM.

Take `CS(=O)(=O)c1ccc(Nc2ncnc(N3CCN(c4ncc(Cc5ccccc5)cn4)CC3)n2)cc1` [Compound 94]: the IC50 at wild type Kit fell in the range of 11 to 100 nM; at D816V Kit, 1.01 to 10 nM; in test [1] it was 10 to 100 nM.

As to `NS(=O)(=O)c1cccc(Nc2ncnc(N3CCN(c4ncc(Cc5ccccc5)cn4)CC3)n2)c1` [Compound 95], the IC50 at wild type Kit is 11 to 100 nM; at D816V Kit, under 1 nM; in test [1], 1000 to 10000 nM.

In the case of `NS(=O)(=O)c1ccc(Nc2ncnc(N3CCN(c4ncc(Cc5ccccc5)cn4)CC3)n2)cc1` [Compound 96], the IC50 is 11 to 100 nM on wild type Kit, under 1 nM on D816V Kit and 100 to 1000 nM in test [1].

For `c1ccc(Cc2cnc(N3CCN(c4ncnc(Nc5ccc(N6CCOCC6)cc5)n4)CC3)nc2)cc1` [Compound 103], the IC50 at wild type Kit is 11 to 100 nM; at D816V Kit, 1.01 to 10 nM; in test [1], 100 to 1000 nM.

For the compound `c1ccc(Cc2cnc(N3CCN(c4ncnc(Nc5cccc(N6CCOCC6)c5)n4)CC3)nc2)cc1` [Compound 104], the IC50 on wild type Kit lay in the range of 11 to 100 nM; at D816V Kit, 1.01 to 10 nM; in test [1] it was 100 to 1000 nM.

As to `c1ccc(Cc2cnc(N3CCN(c4ncnc(Nc5cccc(O[C@@H]6CCNC6)c5)n4)CC3)nc2)cc1` [Compound 105], the IC50 was 11 to 100 nM at wild type Kit, under 1 nM at D816V Kit and 100 to 1000 nM in test [1].

Turning to `c1ccc(Nc2cnc(N3CCN(c4ncnc(Nc5ccc(N6CCOCC6)cc5)n4)CC3)nc2)cc1` [Compound 114], the IC50 at wild type Kit lay within 100 to 1000 nM; on D816V Kit it was 1.01 to 10 nM; in test [1] it was 100 to 1000 nM.

With `Oc1ccccc1Cc1cnc(N2CCN(c3ncnc(Nc4ccc5c(c4)CNCC5)n3)CC2)nc1` [Compound 115], the IC50 on wild type Kit is under 10 nM; on D816V Kit it was under 1 nM; in test [1], 10 to 100 nM.

In the case of `c1ccc(Cc2cnc(N3CCN(c4ncnc(Nc5cnn(CC6CCOCC6)c5)n4)CC3)nc2)cc1` [Compound 118], the IC50 at wild type Kit is under 10 nM; on D816V Kit, under 1 nM; in test [1], 10 to 100 nM.

As to `Fc1ccccc1Cc1cnc(N2CCN(c3ncnc(Nc4ccc5c(c4)CNCC5)n3)CC2)nc1` [Compound 127], the IC50 on wild type Kit was under 10 nM; on D816V Kit it was under 1 nM; in test [1], 10 to 100 nM.

As for `C[C@@H]1CN(c2ncnc(Nc3ccc(P(C)(C)=O)cc3)n2)CCN1c1ncc(Cc2ccccc2)cn1` [Compound 128], the figures for the IC50 (at wild type Kit; on D816V Kit; in test [1]) were 11 to 100 nM, 1.01 to 10 nM and 100 to 1000 nM, respectively.

On to `CS(=O)(=O)c1ccc(Nc2ncnc(N3CCN(c4ncc(Cc5ccccc5)c(O)n4)CC3)n2)cc1` [Compound 143], for which the IC50 on wild type Kit is 11 to 100 nM; on D816V Kit it was 1.01 to 10 nM; in test [1], 100 to 1000 nM.

With `CP(C)(=O)c1ccc(Nc2ncnc(N3CCN(c4ncc(Nc5ccc(F)cc5)cn4)CC3)n2)cc1` [Compound 144], the IC50 at wild type Kit fell in the range of 11 to 100 nM; on D816V Kit, 1.01 to 10 nM; in test [1] it was 100 to 1000 nM.

Consider `c1ccc(Cc2cnc(N3CCN(c4ncnc(Nc5ccc6c(c5)CNCC6)n4)C(Cc4ccccc4)C3)nc2)cc1` (stereo not shown) [Compound 274], for which the results for the IC50 on wild type Kit and at D816V Kit were 100 to 1000 nM and 10 to 100 nM, respectively.
